From ChEMBL document CHEMBL4321812, “Structure-based rational design of staurosporine-based fluorescent probe with broad-ranging kinase affinity for kinase panel application” (Bioorg Med Chem Lett, 2019)

What was measured:
[1] = target: Proto-oncogene tyrosine-protein kinase receptor Ret (Homo sapiens, UniProt P07949); experiment: Binding affinity to recombinant N-terminal His-FLAG-GST-tagged RET (unknown origin) (658 to 1114 residues) expressed in baculovirus infected Sf9 insect cells incubated for 1 hr by TR-FRET assay
[2] = target: Mitogen-activated protein kinase 10 (Homo sapiens, UniProt P53779); experiment: Binding affinity to recombinant full-length N-terminal His-FLAG-GST-tagged MAPK10 (unknown origin) expressed in baculovirus infected Sf9 insect cells incubated for 1 hr by TR-FRET assay
Chain of Mitogen-activated protein kinase 10 (P53779 whole entry): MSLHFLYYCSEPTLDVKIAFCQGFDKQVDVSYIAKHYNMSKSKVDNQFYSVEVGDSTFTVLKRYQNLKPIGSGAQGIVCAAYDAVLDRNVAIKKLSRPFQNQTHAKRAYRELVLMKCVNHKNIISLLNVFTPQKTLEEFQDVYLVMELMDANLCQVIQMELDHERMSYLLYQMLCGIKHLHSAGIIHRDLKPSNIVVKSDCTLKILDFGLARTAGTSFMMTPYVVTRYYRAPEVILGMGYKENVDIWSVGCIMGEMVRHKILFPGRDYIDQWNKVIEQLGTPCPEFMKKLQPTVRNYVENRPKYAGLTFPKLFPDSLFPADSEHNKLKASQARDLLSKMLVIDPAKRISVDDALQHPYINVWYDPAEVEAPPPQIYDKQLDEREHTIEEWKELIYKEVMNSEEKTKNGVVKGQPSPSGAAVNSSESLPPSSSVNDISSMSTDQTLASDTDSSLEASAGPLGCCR

[3] = target: Mitogen-activated protein kinase 12 (Homo sapiens, UniProt P53778); experiment: Binding affinity to recombinant full-length N-terminal His-FLAG-GST-tagged MAPK12 (unknown origin) expressed in baculovirus infected Sf9 insect cells incubated for 1 hr by TR-FRET assay
[4] = target: Mitogen-activated protein kinase 8 (Homo sapiens, UniProt P45983); experiment: Binding affinity to recombinant N-terminal His-FLAG-GST-tagged MAPK8 (unknown origin) (2 to 364 residues) expressed in baculovirus infected Sf9 insect cells incubated for 1 hr by TR-FRET assay
Chain of Mitogen-activated protein kinase 8 (P45983 whole entry, the tested form may be a part): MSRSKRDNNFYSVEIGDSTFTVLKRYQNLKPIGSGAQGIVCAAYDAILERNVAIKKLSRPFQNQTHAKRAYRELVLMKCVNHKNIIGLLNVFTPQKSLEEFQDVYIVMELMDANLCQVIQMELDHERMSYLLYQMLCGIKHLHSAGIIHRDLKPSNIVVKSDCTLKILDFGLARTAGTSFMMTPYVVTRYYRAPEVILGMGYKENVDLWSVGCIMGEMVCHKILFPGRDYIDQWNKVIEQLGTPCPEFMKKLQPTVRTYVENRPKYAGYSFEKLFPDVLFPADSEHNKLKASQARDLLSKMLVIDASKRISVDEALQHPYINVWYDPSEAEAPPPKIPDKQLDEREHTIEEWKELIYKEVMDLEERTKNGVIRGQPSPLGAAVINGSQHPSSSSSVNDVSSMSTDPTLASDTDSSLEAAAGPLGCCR

[5] = target: Serine/threonine-protein kinase SIK2 (Homo sapiens, UniProt Q9H0K1); experiment: Binding affinity to recombinant full-length N-terminal His-FLAG-GST-tagged SIK2 (unknown origin) expressed in baculovirus infected Sf9 insect cells incubated for 1 hr by TR-FRET assay
Chain of Serine/threonine-protein kinase SIK2 (Q9H0K1 whole entry, the tested form may be a part): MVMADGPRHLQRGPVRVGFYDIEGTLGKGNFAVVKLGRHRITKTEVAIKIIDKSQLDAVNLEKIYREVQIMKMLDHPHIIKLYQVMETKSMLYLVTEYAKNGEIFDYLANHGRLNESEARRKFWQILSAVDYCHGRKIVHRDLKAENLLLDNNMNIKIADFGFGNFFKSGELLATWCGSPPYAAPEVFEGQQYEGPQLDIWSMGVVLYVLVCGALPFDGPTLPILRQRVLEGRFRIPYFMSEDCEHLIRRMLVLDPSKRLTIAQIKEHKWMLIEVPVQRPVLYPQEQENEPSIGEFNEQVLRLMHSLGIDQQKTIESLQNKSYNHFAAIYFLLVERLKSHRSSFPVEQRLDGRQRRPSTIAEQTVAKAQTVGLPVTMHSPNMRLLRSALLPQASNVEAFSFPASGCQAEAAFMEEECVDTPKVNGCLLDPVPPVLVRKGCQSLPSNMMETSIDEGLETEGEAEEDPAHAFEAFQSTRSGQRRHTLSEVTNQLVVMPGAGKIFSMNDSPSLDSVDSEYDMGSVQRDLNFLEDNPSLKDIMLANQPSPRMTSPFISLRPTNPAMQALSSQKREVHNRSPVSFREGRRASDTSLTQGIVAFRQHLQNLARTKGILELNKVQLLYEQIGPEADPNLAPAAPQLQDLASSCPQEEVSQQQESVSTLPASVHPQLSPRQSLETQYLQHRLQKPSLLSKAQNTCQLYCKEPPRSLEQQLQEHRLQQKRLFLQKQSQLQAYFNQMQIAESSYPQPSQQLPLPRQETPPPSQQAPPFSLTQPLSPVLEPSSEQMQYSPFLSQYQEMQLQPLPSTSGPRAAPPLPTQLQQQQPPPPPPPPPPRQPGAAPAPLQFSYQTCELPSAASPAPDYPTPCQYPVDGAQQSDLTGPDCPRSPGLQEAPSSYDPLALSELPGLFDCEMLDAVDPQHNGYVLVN

[6] = target: Serine/threonine-protein kinase TNNI3K (Homo sapiens, UniProt Q59H18); experiment: Binding affinity to recombinant N-terminal His-FLAG-GST-tagged TNNI3K (unknown origin) (1 to 727 residues) expressed in baculovirus infected Sf9 insect cells incubated for 1 hr by TR-FRET assay
[7] = target: Proto-oncogene tyrosine-protein kinase Src (Homo sapiens, UniProt P12931); experiment: Binding affinity to recombinant full-length N-terminal His-FLAG-GST-tagged SRC (unknown origin) expressed in baculovirus infected Sf9 insect cells incubated for 1 hr by TR-FRET assay
[8] = target: Serine/threonine-protein kinase DCLK3 (Homo sapiens, UniProt Q9C098); experiment: Binding affinity to recombinant full-length N-terminal His-FLAG-tagged DCLK3 (unknown origin) expressed in baculovirus infected Sf9 insect cells incubated for 1 hr by TR-FRET assay
[9] = target: Fibroblast growth factor receptor 2 (Homo sapiens, UniProt P21802); experiment: Binding affinity to recombinant N-terminal His-FLAG-GST-tagged FGFR2 (unknown origin) (399 to 821 residues) expressed in baculovirus infected Sf9 insect cells incubated for 1 hr by TR-FRET assay
Chain of Fibroblast growth factor receptor 2 (P21802 whole entry, the tested form may be a part): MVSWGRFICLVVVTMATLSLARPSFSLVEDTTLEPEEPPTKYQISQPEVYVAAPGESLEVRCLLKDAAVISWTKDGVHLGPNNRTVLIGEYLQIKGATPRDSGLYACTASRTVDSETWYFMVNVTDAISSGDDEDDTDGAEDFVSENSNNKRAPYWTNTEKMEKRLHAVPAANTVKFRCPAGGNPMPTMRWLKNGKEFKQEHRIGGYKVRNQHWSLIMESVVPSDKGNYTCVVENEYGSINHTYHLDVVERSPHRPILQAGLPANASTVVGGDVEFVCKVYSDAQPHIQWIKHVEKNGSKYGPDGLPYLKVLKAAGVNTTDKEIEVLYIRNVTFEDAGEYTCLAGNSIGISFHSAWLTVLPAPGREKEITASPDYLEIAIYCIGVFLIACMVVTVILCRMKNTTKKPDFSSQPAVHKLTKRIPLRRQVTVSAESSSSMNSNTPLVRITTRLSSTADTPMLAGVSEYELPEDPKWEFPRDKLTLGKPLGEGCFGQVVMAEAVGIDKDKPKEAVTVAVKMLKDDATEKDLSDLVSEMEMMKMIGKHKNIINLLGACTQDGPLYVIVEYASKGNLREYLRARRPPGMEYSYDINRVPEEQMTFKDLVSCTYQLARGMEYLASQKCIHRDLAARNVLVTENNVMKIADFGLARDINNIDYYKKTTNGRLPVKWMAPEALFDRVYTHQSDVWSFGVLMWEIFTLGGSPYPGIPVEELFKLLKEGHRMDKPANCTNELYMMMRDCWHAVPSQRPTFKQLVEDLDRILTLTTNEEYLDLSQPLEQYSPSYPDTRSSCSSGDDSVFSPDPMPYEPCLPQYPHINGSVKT

[10] = target: Ribosomal protein S6 kinase alpha-5 (Homo sapiens, UniProt O75582); experiment: Binding affinity to recombinant full-length N-terminal His-FLAG-GST-tagged RPS6KA5 (unknown origin) expressed in baculovirus infected Sf9 insect cells incubated for 1 hr by TR-FRET assay
Chain of Ribosomal protein S6 kinase alpha-5 (O75582 whole entry): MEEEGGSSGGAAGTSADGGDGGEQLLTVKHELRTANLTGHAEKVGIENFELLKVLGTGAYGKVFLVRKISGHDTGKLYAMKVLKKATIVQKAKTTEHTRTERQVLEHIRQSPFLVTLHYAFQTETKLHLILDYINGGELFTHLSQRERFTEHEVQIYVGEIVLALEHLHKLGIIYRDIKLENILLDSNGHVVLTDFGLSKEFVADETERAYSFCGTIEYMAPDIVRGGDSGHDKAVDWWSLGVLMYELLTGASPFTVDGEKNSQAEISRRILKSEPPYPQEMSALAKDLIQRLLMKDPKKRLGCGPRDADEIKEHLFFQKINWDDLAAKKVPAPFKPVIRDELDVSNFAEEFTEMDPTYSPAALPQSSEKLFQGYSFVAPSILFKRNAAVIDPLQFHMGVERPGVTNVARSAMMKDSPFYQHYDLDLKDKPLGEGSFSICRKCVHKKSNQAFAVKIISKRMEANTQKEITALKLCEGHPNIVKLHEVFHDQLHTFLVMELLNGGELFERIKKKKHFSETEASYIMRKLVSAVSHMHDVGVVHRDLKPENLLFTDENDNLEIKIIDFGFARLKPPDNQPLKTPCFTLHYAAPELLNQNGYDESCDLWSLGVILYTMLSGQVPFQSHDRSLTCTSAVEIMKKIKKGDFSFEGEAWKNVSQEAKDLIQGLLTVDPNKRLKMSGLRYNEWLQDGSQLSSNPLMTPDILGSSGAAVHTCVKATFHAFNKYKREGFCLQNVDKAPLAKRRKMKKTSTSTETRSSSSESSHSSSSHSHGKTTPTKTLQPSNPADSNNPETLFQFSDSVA

[11] = target: Protein kinase C epsilon type (Homo sapiens, UniProt Q02156); experiment: Binding affinity to recombinant human full length N-terminal GST-tagged PRKCE expressed in baculovirus expression system using PKC peptide as substrate incubated for 1 hr by TR-FRET assay
[12] = target: Serine/threonine-protein kinase 32A (Homo sapiens, UniProt Q8WU08); experiment: Binding affinity to recombinant full-length N-terminal His-FLAG-tagged STK32A (unknown origin) expressed in baculovirus infected Sf9 insect cells incubated for 1 hr by TR-FRET assay
Chain of Serine/threonine-protein kinase 32A (Q8WU08 whole entry): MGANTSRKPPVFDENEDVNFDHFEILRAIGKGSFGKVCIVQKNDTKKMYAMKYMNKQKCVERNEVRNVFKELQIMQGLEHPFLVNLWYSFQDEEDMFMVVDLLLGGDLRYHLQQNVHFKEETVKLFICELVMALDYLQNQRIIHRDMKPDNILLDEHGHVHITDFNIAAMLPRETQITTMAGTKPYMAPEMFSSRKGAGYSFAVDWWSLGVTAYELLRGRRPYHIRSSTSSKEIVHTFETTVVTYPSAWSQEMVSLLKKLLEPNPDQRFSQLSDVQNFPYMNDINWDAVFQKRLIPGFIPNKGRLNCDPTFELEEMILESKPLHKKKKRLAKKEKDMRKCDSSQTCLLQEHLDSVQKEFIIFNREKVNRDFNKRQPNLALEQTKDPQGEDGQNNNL

[13] = target: Death-associated protein kinase 2 (Homo sapiens, UniProt Q9UIK4); experiment: Binding affinity to recombinant full-length N-terminal His-FLAG-GST-tagged DAPK2 (unknown origin) expressed in baculovirus infected Sf9 insect cells incubated for 1 hr by TR-FRET assay
[14] = Binding affinity to recombinant human full-length N-terminal […] MKNK1 T334D mutant expressed in baculovirus expression system using RS peptide as substrate incubated for 1 hr by TR-FRET assay
[15] = target: Serine/threonine-protein kinase Sgk1 (Homo sapiens, UniProt O00141); experiment: Binding affinity to recombinant full-length N-terminal His-FLAG-GST-tagged SGK1 (unknown origin) (60 to 431 residues) expressed in baculovirus infected Sf9 insect cells incubated for 1 hr by TR-FRET assay
[16] = target: Death-associated protein kinase 3 (Homo sapiens, UniProt O43293); experiment: Binding affinity to recombinant full-length N-terminal His-FLAG-GST-tagged DAPK3 (unknown origin) expressed in baculovirus infected Sf9 insect cells incubated for 1 hr by TR-FRET assay
[17] = target: Tyrosine-protein kinase SYK (Homo sapiens, UniProt P43405); experiment: Binding affinity to recombinant human full-length N-terminal GST-tagged SYK expressed in baculovirus expression system using Blk/Lyntide as substrate incubated for 1 hr by TR-FRET assay
[18] = target: Serine/threonine-protein kinase TAO1 (Homo sapiens, UniProt Q7L7X3); experiment: Binding affinity to recombinant full-length N-terminal His-FLAG-GST-tagged TAOK1 (unknown origin) (1 to 314 residues) expressed in baculovirus infected Sf9 insect cells incubated for 1 hr by TR-FRET assay
[19] = target: TGF-beta receptor type-2 (Homo sapiens, UniProt P37173); experiment: Binding affinity to recombinant N-terminal His-FLAG-GST-tagged TGFBR2 (unknown origin) (194 to 567 residues) expressed in baculovirus infected Sf9 insect cells incubated for 1 hr by TR-FRET assay
Chain of TGF-beta receptor type-2 (P37173 whole entry, the tested form may be a part): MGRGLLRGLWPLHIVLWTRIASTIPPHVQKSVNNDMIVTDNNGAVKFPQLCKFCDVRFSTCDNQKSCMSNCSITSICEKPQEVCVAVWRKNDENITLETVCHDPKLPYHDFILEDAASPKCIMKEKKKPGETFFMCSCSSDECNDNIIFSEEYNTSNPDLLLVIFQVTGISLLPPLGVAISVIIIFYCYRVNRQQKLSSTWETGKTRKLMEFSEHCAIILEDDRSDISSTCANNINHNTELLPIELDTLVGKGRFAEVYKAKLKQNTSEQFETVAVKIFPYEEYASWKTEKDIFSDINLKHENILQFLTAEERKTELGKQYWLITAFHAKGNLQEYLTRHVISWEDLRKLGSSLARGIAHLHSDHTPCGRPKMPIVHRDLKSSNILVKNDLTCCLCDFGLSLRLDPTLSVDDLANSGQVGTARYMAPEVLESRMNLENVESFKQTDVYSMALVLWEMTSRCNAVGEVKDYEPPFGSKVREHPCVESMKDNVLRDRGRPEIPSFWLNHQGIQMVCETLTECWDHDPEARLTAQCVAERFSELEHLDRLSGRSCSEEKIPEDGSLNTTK

[20] = target: Activated CDC42 kinase 1 (Homo sapiens, UniProt Q07912); experiment: Binding affinity to recombinant N-terminal His-FLAG-GST-tagged TNK2 (unknown origin) (110 to 476 residues) expressed in baculovirus infected Sf9 insect cells incubated for 1 hr by TR-FRET assay
[21] = target: Serine/threonine-protein kinase Sgk3 (Homo sapiens, UniProt Q96BR1); experiment: Binding affinity to recombinant full-length N-terminal His-FLAG-GST-tagged SGK3 (unknown origin) (119 to 496 residues) expressed in baculovirus infected Sf9 insect cells incubated for 1 hr by TR-FRET assay
[22] = target: Protein kinase C beta type (Homo sapiens, UniProt P05771); experiment: Binding affinity to recombinant full-length N-terminal His-FLAG-tagged PRKCB (unknown origin) expressed in baculovirus infected Sf9 insect cells incubated for 1 hr by TR-FRET assay
[23] = target: Tyrosine-protein kinase Fgr (Homo sapiens, UniProt P09769); experiment: Binding affinity to recombinant full-length N-terminal His-FLAG-tagged FGR (unknown origin) expressed in baculovirus infected Sf9 insect cells incubated for 1 hr by TR-FRET assay
[24] = target: Serine/threonine-protein kinase 25 (Homo sapiens, UniProt O00506); experiment: Binding affinity to recombinant full-length N-terminal His-FLAG-GST-tagged STK25 (unknown origin) expressed in baculovirus infected Sf9 insect cells incubated for 1 hr by TR-FRET assay
Chain of Serine/threonine-protein kinase 25 (O00506 whole entry): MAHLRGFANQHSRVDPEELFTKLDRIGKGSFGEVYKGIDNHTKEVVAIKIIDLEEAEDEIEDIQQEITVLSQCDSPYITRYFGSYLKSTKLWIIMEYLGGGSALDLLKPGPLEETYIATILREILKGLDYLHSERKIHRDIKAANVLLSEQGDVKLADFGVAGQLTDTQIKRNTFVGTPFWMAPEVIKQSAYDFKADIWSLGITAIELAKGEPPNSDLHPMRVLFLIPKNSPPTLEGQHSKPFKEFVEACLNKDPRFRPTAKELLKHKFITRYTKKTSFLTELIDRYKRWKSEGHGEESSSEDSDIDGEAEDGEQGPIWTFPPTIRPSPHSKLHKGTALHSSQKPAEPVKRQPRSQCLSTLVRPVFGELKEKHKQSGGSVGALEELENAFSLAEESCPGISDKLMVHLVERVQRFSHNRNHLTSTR

[25] = target: Aurora kinase A (Homo sapiens, UniProt O14965); experiment: Binding affinity to recombinant full-length N-terminal His-FLAG-GST-tagged AURKA (unknown origin) expressed in baculovirus infected Sf9 insect cells incubated for 1 hr by TR-FRET assay

SMILES	Kd [1]	Kd [2]	Kd [3]	Kd [4]	Kd [5]	Kd [6]	Kd [7]	Kd [8]	Kd [9]	Kd [10]	Kd [11]	Kd [12]	Kd [13]	Kd [14]	Kd [15]	Kd [16]	Kd [17]	Kd [18]	Kd [19]	Kd [20]	other results
CO[C@@H]1[C@H](NCCOCCOCCOCCNC(=O)CCC2=[N+]3C(=Cc4c(C)cc(C)n4[B-]3(F)F)C=C2)C[C@H]2O[C@]1(C)n1c3ccccc3c3c4c(c5c6ccccc6n2c5c31)C(=O)NC4	40 nM	315 nM	948 nM	286 nM	4 nM	844 nM	452 nM	60 nM	242 nM	345 nM	41 nM	1540 nM	34 nM	28 nM	331 nM	41 nM	26 nM	25 nM	854 nM	36 nM	Kd [21]: 322 nM; Kd [22]: 65 nM; Kd [23]: 101 nM; Kd [24]: 444 nM; Kd [25]: 45 nM
CO[C@@H]1[C@H](N(C)CCOCCOCCOCCNC(=O)CCC2=[N+]3C(=Cc4c(C)cc(C)n4[B-]3(F)F)C=C2)C[C@H]2O[C@]1(C)n1c3ccccc3c3c4c(c5c6ccccc6n2c5c31)C(=O)NC4	54 nM	245 nM	1020 nM	536 nM	3 nM	1200 nM	572 nM	104 nM	361 nM	249 nM	15 nM	1750 nM	60 nM	37 nM	566 nM	25 nM	41 nM	15 nM	> 2000 nM	42 nM	Kd [21]: 338 nM; Kd [22]: 17 nM; Kd [23]: 119 nM; Kd [24]: 443 nM; Kd [25]: 51 nM
